Measurements as given in ChEMBL document CHEMBL1201862, “PubChem BioAssay data set” (2004).
The source made the active and inactive calls.

How the values were obtained:
Cytochrome P450 2C19 = Cytochrome P450 2C19 (Homo sapiens, UniProt P33261); test: Cytochrome panel assay with activity outcomes. Panel member name: p450-cyp2c19 Compounds with AC50 equal or less than 10 uM are considered active; type: functional
Cytochrome P450 1A2 = target: T1, Cytochrome P450 1A2 (Homo sapiens, UniProt P05177);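 further: PubChem cytochrome P450 panel assay, CYP1A2 panel member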
T1 sequence (P05177 whole entry): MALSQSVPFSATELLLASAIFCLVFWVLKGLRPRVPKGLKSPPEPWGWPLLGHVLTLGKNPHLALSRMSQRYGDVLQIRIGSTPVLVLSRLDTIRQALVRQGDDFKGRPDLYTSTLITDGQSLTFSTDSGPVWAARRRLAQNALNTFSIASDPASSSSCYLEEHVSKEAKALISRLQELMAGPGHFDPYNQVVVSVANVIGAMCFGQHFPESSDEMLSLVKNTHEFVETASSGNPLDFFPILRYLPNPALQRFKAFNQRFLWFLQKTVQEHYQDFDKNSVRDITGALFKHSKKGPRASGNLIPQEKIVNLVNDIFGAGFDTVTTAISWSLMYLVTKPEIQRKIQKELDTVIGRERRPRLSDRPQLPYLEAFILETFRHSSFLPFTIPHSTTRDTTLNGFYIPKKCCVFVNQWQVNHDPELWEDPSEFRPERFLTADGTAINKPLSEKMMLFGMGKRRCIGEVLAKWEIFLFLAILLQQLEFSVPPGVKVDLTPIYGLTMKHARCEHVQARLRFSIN

SUMO-activating enzyme [1] = target: T2, SUMO-activating enzyme (Homo sapiens, UniProt Q9UBT2); test: SUMOylation inhibitor hit validation, confirmation, SUMOylation inhibitor project, biochemical, AlphaScreen (AID 2018); type: functional
T2 sequence (Q9UBE0 whole entry): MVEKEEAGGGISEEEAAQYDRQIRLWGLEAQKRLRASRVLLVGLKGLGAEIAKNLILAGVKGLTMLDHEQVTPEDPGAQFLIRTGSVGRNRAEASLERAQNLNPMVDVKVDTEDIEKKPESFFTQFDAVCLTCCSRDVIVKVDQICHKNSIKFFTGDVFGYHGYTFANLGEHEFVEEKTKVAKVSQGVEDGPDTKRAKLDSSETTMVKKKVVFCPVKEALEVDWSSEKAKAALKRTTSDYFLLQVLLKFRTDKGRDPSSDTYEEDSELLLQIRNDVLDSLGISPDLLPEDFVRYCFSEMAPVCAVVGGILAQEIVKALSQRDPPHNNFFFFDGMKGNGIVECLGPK
T2 sequence (Q9UBT2 whole entry): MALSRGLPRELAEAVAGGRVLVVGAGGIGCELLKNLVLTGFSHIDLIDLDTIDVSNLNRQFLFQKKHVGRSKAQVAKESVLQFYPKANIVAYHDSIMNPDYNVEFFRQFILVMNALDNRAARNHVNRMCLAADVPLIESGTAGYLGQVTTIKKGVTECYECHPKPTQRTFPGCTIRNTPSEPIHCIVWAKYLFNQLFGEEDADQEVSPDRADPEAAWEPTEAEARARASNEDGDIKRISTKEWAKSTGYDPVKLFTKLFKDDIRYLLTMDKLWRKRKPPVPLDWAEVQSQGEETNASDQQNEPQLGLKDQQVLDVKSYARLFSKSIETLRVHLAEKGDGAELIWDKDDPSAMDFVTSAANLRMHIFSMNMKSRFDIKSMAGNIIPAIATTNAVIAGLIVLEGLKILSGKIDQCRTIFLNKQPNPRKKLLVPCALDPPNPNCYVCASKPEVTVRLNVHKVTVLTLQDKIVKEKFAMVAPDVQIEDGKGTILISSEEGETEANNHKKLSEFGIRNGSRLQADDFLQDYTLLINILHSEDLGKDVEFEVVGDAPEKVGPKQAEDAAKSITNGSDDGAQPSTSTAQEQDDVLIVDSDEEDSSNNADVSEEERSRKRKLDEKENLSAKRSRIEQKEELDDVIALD

SUMO-activating enzyme [2] = target: T2, SUMO-activating enzyme; test: inhibitors of in vitro SUMOylation cascade, primary screen, biochemical, HTRF, uHTS (AID 2006); type: protein-complex assay
SUMO E1/E2 = SUMO E1/E2 (Homo sapiens, UniProt P63279+Q9UBE0+Q9UBT2); test: SAR analysis of SUMOylation using HTRF in an in-Vitro dose response assay. [Related pubchem assays (depositor defined):AID2006, AID2011, AID2018, AID2069, AID2658]; type: functional
SUMO E1/E2, sequence (Q9UBE0 whole entry, the tested form may be a part): as the sequence (Q9UBE0 whole entry) above
SUMO E1/E2, sequence (Q9UBT2 whole entry, the tested form may be a part): as the sequence (Q9UBT2 whole entry) above
SUMO E1/E2, sequence (P63279 whole entry, the tested form may be a part): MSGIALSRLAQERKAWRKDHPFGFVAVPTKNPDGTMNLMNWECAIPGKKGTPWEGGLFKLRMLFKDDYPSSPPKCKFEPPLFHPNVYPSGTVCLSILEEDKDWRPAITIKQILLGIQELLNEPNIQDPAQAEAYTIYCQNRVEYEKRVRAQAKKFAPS

[3] = target: T3, RNA-binding protein pos-1 (Caenorhabditis elegans, UniProt G5EF15); test: inhibitors of POS-1/mex-3 RNA binding, dose response, biochemical, fluorescence polarization (AID 1964);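 further: purified POS-1 fused to maltose binding protein made in E. coli; potency of compounds blocking POS-1 binding to fluorescent RNA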
T3 sequence (G5EF15 whole entry): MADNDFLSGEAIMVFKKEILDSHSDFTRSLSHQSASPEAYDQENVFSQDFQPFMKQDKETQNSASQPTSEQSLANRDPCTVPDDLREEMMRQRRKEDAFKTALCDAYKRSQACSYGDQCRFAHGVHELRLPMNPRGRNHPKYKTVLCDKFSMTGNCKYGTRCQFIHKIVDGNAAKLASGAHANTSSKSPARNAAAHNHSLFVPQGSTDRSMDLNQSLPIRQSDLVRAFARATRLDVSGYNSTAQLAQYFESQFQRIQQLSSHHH

[4] = target: T4, Zinc finger protein mex-5 (Caenorhabditis elegans, UniProt Q9XUB2); test: MEX-5/TCR-2 RNA interaction inhibitors, dose response, biochemical, C. elegans, fluorescence polarization (AID 1960)
T4 sequence (Q9XUB2 whole entry): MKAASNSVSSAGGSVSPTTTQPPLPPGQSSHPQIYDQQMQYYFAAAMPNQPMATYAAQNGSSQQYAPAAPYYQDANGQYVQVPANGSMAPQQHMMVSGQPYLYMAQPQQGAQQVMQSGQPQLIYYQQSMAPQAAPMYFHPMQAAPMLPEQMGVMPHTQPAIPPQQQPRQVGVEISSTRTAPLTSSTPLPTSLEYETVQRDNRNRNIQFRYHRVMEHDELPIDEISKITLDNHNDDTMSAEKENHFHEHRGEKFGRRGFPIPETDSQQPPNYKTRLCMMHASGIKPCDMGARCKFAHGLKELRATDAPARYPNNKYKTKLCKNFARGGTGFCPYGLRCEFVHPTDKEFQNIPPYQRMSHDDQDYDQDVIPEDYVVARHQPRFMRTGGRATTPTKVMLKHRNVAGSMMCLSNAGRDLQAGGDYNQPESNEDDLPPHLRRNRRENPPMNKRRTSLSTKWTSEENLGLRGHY

[5] = target: T5, Endoribonuclease toxin MazF (Escherichia coli K-12, UniProt P0AE70); test: MazF toxin RNase activators, dose response, biochemical, fluorescence, single-stranded RNA substrate, uHTS hits (AID 588481); type: functional
T5 sequence (P0AE70 whole entry): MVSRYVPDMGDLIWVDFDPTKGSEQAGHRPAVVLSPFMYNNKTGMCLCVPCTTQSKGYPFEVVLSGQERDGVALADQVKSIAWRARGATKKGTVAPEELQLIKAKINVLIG

[6] = target: UDP-galactopyranose mutase (Mycobacterium tuberculosis, UniProt P9WIQ1); test: Inhibitors of Mycobacterium tuberculosis UDP-galactopyranose mutase (UGM) enzyme Measured in Biochemical System Using Plate Reader - 2105-02_Inhibitor_Dose_CherryPick_Activity. [Related pubchem assays (depositor defined):AID504439]
UDP-galactopyranose mutase, sequence (P9WIQ1 whole entry): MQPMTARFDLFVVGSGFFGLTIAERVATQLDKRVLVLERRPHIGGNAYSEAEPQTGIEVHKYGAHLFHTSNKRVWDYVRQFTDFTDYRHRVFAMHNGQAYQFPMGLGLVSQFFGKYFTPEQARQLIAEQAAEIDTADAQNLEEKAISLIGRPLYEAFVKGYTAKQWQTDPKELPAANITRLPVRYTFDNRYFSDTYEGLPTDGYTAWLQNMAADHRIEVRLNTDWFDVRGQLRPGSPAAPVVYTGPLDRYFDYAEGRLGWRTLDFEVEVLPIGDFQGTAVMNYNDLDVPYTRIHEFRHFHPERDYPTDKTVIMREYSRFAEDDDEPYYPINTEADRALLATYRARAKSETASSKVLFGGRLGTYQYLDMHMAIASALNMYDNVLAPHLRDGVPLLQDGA

[7] = target: T5, Endoribonuclease toxin MazF; test: fluorescent RNA oligo signal without MazF, dose response, counter-screen for MazEF activator project, biochemical, fluorescence, single-stranded RNase substrate (AID 588502); type: functional
[8] = inhibitors of Trypanosoma cruzi host-cell infection, confirmation, beta-gal luminescence, NIH3T3 host cells (AID 2630); type: functional, cell-based; conditions: Mus musculus

Cytochrome P450 2C19, sequence (P33261 whole entry): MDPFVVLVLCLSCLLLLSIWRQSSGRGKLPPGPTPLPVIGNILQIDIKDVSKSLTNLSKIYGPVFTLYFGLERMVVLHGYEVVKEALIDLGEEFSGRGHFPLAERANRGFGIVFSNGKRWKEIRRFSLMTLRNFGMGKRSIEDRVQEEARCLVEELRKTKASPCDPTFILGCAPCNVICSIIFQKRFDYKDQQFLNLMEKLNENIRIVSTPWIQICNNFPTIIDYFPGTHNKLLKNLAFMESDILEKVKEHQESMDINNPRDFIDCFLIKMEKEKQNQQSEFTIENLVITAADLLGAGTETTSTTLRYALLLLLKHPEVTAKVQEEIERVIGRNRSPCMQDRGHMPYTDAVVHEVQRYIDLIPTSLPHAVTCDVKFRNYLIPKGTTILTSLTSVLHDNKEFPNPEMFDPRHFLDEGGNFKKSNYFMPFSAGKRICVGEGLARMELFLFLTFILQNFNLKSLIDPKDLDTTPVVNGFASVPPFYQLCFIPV

In the case of `CCOC(=O)[C@H](CCc1ccccc1)N[C@@H](C)C(=O)N1[C@H](C(=O)O)C[C@H]2CCC[C@@H]21`, the AC50 (Cytochrome P450 2C19) is reported as “inactive” and the AC50 (Cytochrome P450 1A2) is reported as “inactive”.

For `COc1cc(C2c3c(oc4ccccc4c3=O)C(=O)N2c2nccs2)ccc1O` (stereo unspecified), the IC50 (SUMO-activating enzyme [1]) was 12.7 µM (active), the IC50 (SUMO-activating enzyme [2]) was 36 µM (active) and the IC50 (SUMO E1/E2) was 81.5 µM (active).

In the case of `Cc1ccc(Cl)c2c(N=Nc3ccccc3)c(O)[nH]c12`, the EC50 [3] is reported as 18.6 µM (active), the EC50 [4] is reported as > 300 µM (inconclusive) and the EC50 [5] is reported as 19.1 µM (active). For the same compound, the AC50 [6] was 113 µM (active) and the EC50 [7] was 8.15 µM (active).

With `CCn1cc(CN2CCCC(C(=O)c3cccc(C(F)(F)F)c3)C2)cn1` (stereo unspecified) the EC50 [8] was 0.25 µM (active).
